The numbers were not newly measured in US12527767B2 (priority 2019, dated 2026), which cites them from elsewhere.

The subject of the series is corneal neovascularization. The conditions noted are these: rabbit, in vivo.

In the case of `O=C1O[C@H]([C@@H](O)CO)C(O)=C1O` [ascorbic acid], the corneal neovascularization result is reported as “attenuated corneal neovascularization”.
